Source: patent US10183913B2, “Pyrazole compound” (Sumitomo Dainippon Pharma Co., Ltd., priority 2010, dated 2019)
Structures can show the parent of a compound that is named as a salt. Where two headings read alike, the source gives them in different places.

Columns and labels:
[1] = biological target: T1, human serotonin 2C receptor (h-5-HT2C) (Homo sapiens (Human), UniProt P28335); assay: [3H] mesulergine binding assay to evaluate affinity for human 5-HT2C receptor; conditions: h-5-HT2C/CHO membrane preparation, read-out: Test Ex. 2: 5-HT2C receptor binding inhibition constant Ki
Protocol: Mesulergine Binding Assay to Evaluate Affinity for Human 5-HT2C Receptor
(§1) Preparation of the Cells and Membrane Preparations
In the experiment, human serotonin 2C receptor (h-5-HT2C) was expressed in CHO cells (h-5-HT2C/CHO). The cells were incubated with UltraCHO Lipuid (trademark) (manufactured by BioWhitakker) containing 1% FBS, 400 μg/mL Geneticin, 100 U/mL penicillin—100 μg/mL streptomycin (all manufactured by Sigma Aldrich) and 250 μg/mL Zeosin (manufactured by InvivoGen) in an incubator containing 5% CO2; detached and collected using 50 mmol/L Tris-HCl (pH=7.4); homogenized with a homogenizer manufactured by Teflon (trademark); and then centrifuged (48,000×g, 25 min, 4° C.). The precipitate was suspended again in the appropriate amount of 50 mmol/L Tris-HCl (to give a membrane preparation), and stored at −80° C. until used. The amount of protein in the membrane preparation was assayed by Dye Reagent Concentrate (manufactured by BIO-RAD) using bovine serum albumin (manufactured by Sigma Aldrich) as a standard.
2-2. 5-HT2C Receptor Binding Assay
A solution of 200 μL in total was prepared by mixing 50 μL of [^3H] mesulergine (manufactured by GE Healthcare) diluted with 50 mmol/L Tris-HCl (pH=7.4) (final concentration: about 2 nmol/L), 149 μL of the h-5-HT2C/CHO membrane preparation (protein amount: 20 μg/well), and 1 μL of the test drug dissolved in dimethylsulfoxide. The solution was reacted at 37° C. for 30 minutes, and then quickly suction-filtered under reduced pressure through a glass fiber filter coated with 1% aq. bovine serum albumin. The glass fiber filter was washed twice with 250 μL of 50 mmol/L Tris-HCl (pH=7.4), placed in a plastic vial containing 4 mL of liquid scintillator (ACS-II, manufactured by Amersham) or Ecoscint A (manufactured by National Diagnostics), and the remaining radioactivity on the filter paper was assayed with a liquid scintillation counter. The non-specific binding of [^3H] mesulergine was defined as a binding amount in the presence of 10 μmol/L SB206553 (manufactured by Sigma Aldrich). The IC50 value was calculated according to Hill analysis, and the binding inhibition constant (Ki) was calculated according to the following formula: Binding inhibition constant (Ki)=IC50/(1+S/Kd) wherein S is a concentration of the added [^3H] mesulergine, and Kd is a binding dissociation constant of [^3H] mesulergine which was calculated from a saturated binding assay using the same cell membrane.

[2] = biological target: human serotonin transporter (h-SERT) (Homo sapiens (Human), UniProt P31645); assay: [3H] citalopram binding assay to evaluate human serotonin reuptake inhibitory action (h-SERT binding assay)
Protocol: Citalopram Binding Assay to Evaluate Human Serotonin Reuptake Inhibitory Action
as §1
In the experiment, human serotonin transporter (h-SERT) was expressed in CHO cells (h-SERT/CHO). The cells were incubated with F12 containing 10% FCS, 500 μg/mL Geneticin and 100 U/mL penicillin—100 μg/mL streptmycin (all manufactured by Sigma Aldrich) in an incubator containing 5% CO2; detached and collected using a SERT buffer [50 mmol/L Tris-HCl comprising 120 mmol/L NaCl and 5 mmol/L KCl (pH=7.4)]; homogenized with a homogenizer manufactured by Teflon (trademark); and then centrifuged (50,000×g, 30 min, 4° C.). The precipitate was suspended again in the appropriate amount of SERT buffer (to give a membrane preparation), and stored at −80° C. until used. The amount of protein in the membrane preparation was assayed by Dye Reagent Concentrate (manufactured by BIO-RAD) using bovine serum albumin (manufactured by Sigma Aldrich) as a standard.
1-2. h-SERT Binding Assay
The [^3H] citalopram binding was measured according to the method disclosed in Owens M. J. et al., J. Pharm. […] The solution was reacted at room temperature for 60 minutes, and then quickly suction-filtered under reduced pressure through a glass fiber filter coated with 0.05% aq. polyethyleneimine. The glass fiber filter was washed twice with […] of the SERT buffer, placed in a plastic vial containing 4 mL of liquid scintillator (ACS-II, manufactured by Amersham) or Ecoscint A (manufactured by National Diagnostics), and the remaining radioactivity on the filter paper was assayed with a liquid scintillation counter.

[3] = biological target: T1, human serotonin 2C receptor (h-5-HT2C); assay: 5-HT2C receptor agonistic action assay (FLIPR Calcium 4 Assay kit, h-5-HT2C/CHO cells); format: cell-based; conditions: test material 10 μmol/L; 100% = 10 μmol/L 5-HT, −100% = 10 μmol/L SB206553; below 0% = inverse agonistic action
Protocol: 3-1. The Cells and Inoculation Thereof
In the experiment, human serotonin 2C receptor (h-5-HT2C) was expressed in CHO cells (h-5-HT2C/CHO). The cells were incubated with UltraCHO Lipuid (trademark) (manufactured by BioWhitakker) containing 1% FBS, 400 μg/mL Geneticin, 100 U/mL penicillin—100 μg/mL streptomycin (all manufactured by Sigma Aldrich) and 250 μg/mL Zeosin (manufactured by InvivoGen) in an incubator containing 5% CO2. On the day before using the cells, they were detached and collected using 250 μg/mL Trypsin solution (manufactured by Nacalai Tesque), then inoculated in a 96 well flat clear bottom black polystyrene TC-treated microplates (manufactured by Corning) at 40000 cells/well/60 μL in an incubator containing 5% CO2 for 16 hours to 24 hours.
3-2. 5-HT2C Receptor Agonistic Action Assay
The 5-HT2C receptor agonistic action was evaluated with FLIPR Calcium 4 Assay kit (manufactured by Molecular Devices). In specific, to the cells inoculated in the plate were added Component A of FLIPR Calcium 4 Assay kit dissolved in 100 mL of HHBP buffer (1×Hanks buffer, 20 mmol/L HEPES, both manufactured by Gibco) at an amount of 40 μL/well, and the cells were incubated in an incubator containing 5% CO2 for 1 hour. Then, the cells were set in FLIPR TETRA (trademark) (manufactured by Molecular Devices), to the cells was added the test material diluted with HHBP buffer, 2.5 mmol/L Probenecid (manufactured by Sigma) (concentration after dilution: 10 μmol/L) at an amount of 20 μL/well, and the fluorescence was measured. Then, in order to evaluate the antagonistic action of the test material, 20 μL/well of 5-HT solution (manufactured by Sigma, final concentration: 0.1 nmol/L) was further added to the cells, and the fluorescence was measured.
The 5-HT2C receptor agonistic action of each test material was calculated as a rate of fluorescence enhancement wherein 100% was defined as a value when the cells were given 10 μmol/L 5-HT. Furthermore, the 5-HT2C receptor inverse agonistic action was calculated as a rate of fluorescence decay wherein −100% was defined as a value when the cells were given 10 μmol/L SB206553 (manufactured by Sigma Aldrich). A lower value of the 5-HT2C receptor agonistic action of the test material means that the material has a higher antagonistic action. In particular, when the value of the 5-HT2C receptor agonistic action of the test material is below 0%, the material has an inverse agonistic action for 5-HT2C receptor.

[4] = [3H] citalopram binding, read-out: Test Ex. 1: h-SERT binding inhibition constant Ki

T1 sequence (P28335 whole entry, looked up): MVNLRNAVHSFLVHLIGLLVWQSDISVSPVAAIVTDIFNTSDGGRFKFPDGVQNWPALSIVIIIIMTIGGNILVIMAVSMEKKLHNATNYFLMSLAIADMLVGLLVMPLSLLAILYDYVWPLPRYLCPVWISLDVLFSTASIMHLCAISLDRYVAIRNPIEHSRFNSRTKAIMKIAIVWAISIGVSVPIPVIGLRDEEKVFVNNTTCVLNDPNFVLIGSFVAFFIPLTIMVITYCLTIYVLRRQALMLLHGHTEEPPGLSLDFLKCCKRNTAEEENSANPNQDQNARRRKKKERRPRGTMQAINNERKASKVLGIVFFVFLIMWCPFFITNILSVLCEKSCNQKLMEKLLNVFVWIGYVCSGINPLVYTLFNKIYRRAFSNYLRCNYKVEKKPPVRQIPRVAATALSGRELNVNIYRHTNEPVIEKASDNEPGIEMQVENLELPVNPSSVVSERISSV

Structure (SMILES) | Ki [1] [nM] | Ki [2, 4] [nM] | Test Ex. 3: 5-HT2C receptor agonistic action [3] [%] | Ki [2] [nM]
CNCc1cc(OCc2cc(Cl)ccc2F)n(CC2CCCC2)n1 [Example 148, 1-{5-[(5-chloro-2-fluorobenzyl)oxy]-1-(cyclopentylmethyl)-1H-pyrazol-3-yl}-N-methylmethanamine] | 1.9 | 4.6 | – | –
CNC(C)c1cc(OCc2cc(F)ccc2F)n(CCC2CCCC2)n1 (single isomer, unassigned; (-)) [Example 476, (−)-1-{1-(2-cyclopentylethyl)-5-[(2,5-difluorobenzyl)-oxy]-1H-pyrazol-3-yl}-N-methylethanamine] | – | – | −72 | –
CNCc1cc(OCc2ccccc2F)n(CCC(C)C)n1 [Example 381, 1-{5-[(2-fluorobenzyl)oxy]-1-(3-methylbutyl)-1H-pyrazol-3-yl}-N-methylmethanamine] | 10 | 3.4 | – | –
CNCc1cc(OCc2ccccc2)n(CCC2CCCC2)n1 [Example 192, 1-[5-(Benzyloxy)-1-(2-cyclopentylethyl)-1H-pyrazol-3-yl]-N-methylmethanamine] | 3.9 | 0.91 | – | –
CNCc1cc(OCc2ccc(F)cc2)n(CC2(C(F)(F)F)CCCC2)n1 [Example 446, 1-(5-[(4-fluorobenzyl)oxy]-1-{[1-(trifluoromethyl)-cyclopentyl]methyl}-1H-pyrazol-3-yl)-N-methylmethanamine] | 19 | 7.4 | – | –
CNCc1cc(OCc2cc(F)c(F)cc2F)n(Cc2ccc(C)cc2)n1 [Example 286, N-methyl-1-{1-(4-methylbenzyl)-5-[(2,4,5-trifluoro-benzyl)oxy]-1H-pyrazol-3-yl}methanamine] | 6.6 | 5.5 | – | –
CNCc1cc(OCc2cc(Cl)ccc2F)n(CC(C)C)n1 [Example 256, 1-{5-[(5-chloro-2-fluorobenzyl)oxy]-1-(2-methylpropyl)-1H-pyrazol-3-yl}-N-methylmethanamine] | – | – | −97 | –
CNCc1cc(OCc2cc(F)ccc2F)n(CC2(C(F)(F)F)CCCC2)n1 [Example 447, 1-(5-[(2,5-difluorobenzyl)oxy]-1-{[1-(trifluoro-methyl)cyclopentyl]methyl}-1H-pyrazol-3-yl)-N-methylmethanamine] | 13 | 0.5 | – | –
CNCc1cc(OCc2cc(F)ccc2F)n(CC2CCCC2)n1 [Example 147, 1-{1-(cyclopentylmethyl)-5-[(2,5-difluorobenzyl)oxy]-1H-pyrazol-3-yl}-N-methylmethanamine] | 4.8 | 0.71 | – | –
CNCc1nn(CC2CCCCC2)c(OCc2cc(F)ccc2F)c1F.Cl [Example 351, 1-{1-(Cyclohexylmethyl)-5-[(2,5-difluorobenzyl)oxy]-4-fluoro-1H-pyrazol-3-yl}-N-methylmethanamine hydrochloride] | 43 | – | – | 0.98
CNCc1cc(OCc2cc(F)c(F)cc2F)n(CCC(C)(C)C)n1 [Example 284, 1-{1-(3,3-dimethylbutyl)-5-[(2,4,5-trifluorobenzyl)-oxy]-1H-pyrazol-3-yl}-N-methylmethanamine] | 7.9 | 5.7 | – | –
CNCc1cc(OCc2cc(F)ccc2F)n(Cc2ccc(C)cc2)n1 [Example 230, 1-{5-[(2,5-difluorobenzyl)oxy]-1-(4-methylbenzyl)-1H-pyrazol-3-yl}-N-methylmethanamine] | 4.9 | 2.3 | – | –
CNCc1cc(OCc2ccccc2)n(Cc2ccccc2)n1 [Example 1, 1-[1-Benzyl-5-(benzyloxy)-1H-pyrazol-3-yl]-N-methylmethanamine hydrochloride] | 26 | 4.9 | – | –
CNCc1cc(OCc2ccc(F)cc2)n(CC2CCCC2)n1 [Example 137, 1-{1-(cyclopentylmethyl)-5-[(4-fluorobenzyl)oxy]-1H-pyrazol-3-yl}-N-methylmethanamine] | 7.9 | 6.6 | – | –
Fc1ccc(F)c(COc2cc(CNC3CC3)nn2CC2CCCCC2)c1 [Example 342, N-({1-(Cyclohexylmethyl)-5-[(2,5-difluorobenzyl)oxy]-1H-pyrazol-3-yl}methyl)cyclopropanamine] | 14 | 8.5 | – | –
CNCc1cc(OCc2ccc(F)cc2C)n(CC2CCCCC2)n1 [Example 31, 1-{1-(Cyclohexylmethyl)-5-[(4-fluoro-2-methylbenzyl)oxy]-1H-pyrazol-3-yl}-N-methylmethanamine] | 5.2 | 0.92 | – | –
CNCc1cc(OCc2cc(F)c(F)cc2F)n(CC2CCCC2)n1 [Example 280, 1-{1-(cyclopentylmethyl)-5-[(2,4,5-trifluorobenzyl)-oxy]-1H-pyrazol-3-yl}-N-methylmethanamine] | 9.7 | 1.9 | – | –
CNCc1cc(OCc2cc(Cl)ccc2F)n(CC2(C(F)(F)F)CCCC2)n1 [Example 448, 1-(5-[(5-chloro-2-fluorobenzyl)oxy]-1-{[1-(trifluoro-methyl)cyclopentyl]methyl}-1H-pyrazol-3-yl)-N-methylmethanamine] | 8.8 | 3.8 | – | –
CNCc1cc(OCc2cc(F)ccc2F)n(Cc2ccc(F)cc2)n1 [Example 219, 1-{5-[(2,5-difluorobenzyl)oxy]-1-(4-fluorobenzyl)-1H-pyrazol-3-yl}-N-methylmethanamine] | 10 | 1.6 | – | –
